In patent US20060058286A1, “Methods of treating HIV infection” (priority 2004, published 2006):
pEC50: −log10 of the molar value.

Tests used:
HIV-1 NL4-3 [1] = experiment: microbe, parasite or virus in culture; conditions: Human immunodeficiency virus 1, NL43, MT2, 120 h
Protocol: (§1) Virus and cell lines. The T-cell line, MT-2 was obtained through the AIDS Research and Reference Reagent Program, NIAID and was contributed by Dr. D. Richman. The cell line was cultured in RPMI 1640 medium supplemented with 10% fetal bovine serum, 2 mM L-glutamine and sub-cultured twice a week. The NL4-3 strain of HIV-1 was obtained from the AIDS Research and Reference Reagent Program. Both virus stocks were amplified and titered in MT-2 cells using a virus infectivity assay.
(§2) Drug Susceptibility and Cytotoxicity Assays. For drug susceptibility assays, MT-2 cells were infected with HIV-1 NL4-3 at an MOI of 0.001, and seeded into 96-well microtiter plates (2.5×10^5 cells/ml) containing serial dilutions of test compounds. […] Each drug ratio consisted of an array of 3-fold serial dilutions, and was performed in quadruplicate. The plates were incubated at 37° C./5% CO2. The MT-2 cells infected with HIV-1 NL4-3 were incubated for 5 days. On day-five post-infection, 20 μl from each well was harvested and quantitated by a reverse transcriptase (RT) assay or an MTS assay. Cytotoxicity assays were performed using uninfected cells, exposed to the same drug combinations, and incubated for five days. Cell viability was determined by an XTT assay. The CC50 values were calculated by using the exponential form of the median effect equation as mentioned below for calculation of EC50.
(§3) In this equation, Fa stands for “fraction affected,” and represents the fraction of the viral load that has been inactivated.
In carrying out the combination experiments below, the EC50 for Compound 1 and each comparator compound was determined during the course of each study, and used in the subsequent data analysis.

HIV-1 NL4-3 [2] = experiment: Two-drug combination study with Compound 1 (combination indices); assay type: cell-based; conditions: for Overall Result: overall antiviral effect of the two-drug combination with Compound 1, all ratios and effective levels; for Combination Indices at 50% HIV Inhibition (Confidence Interval) / Combination Indices at 75% HIV Inhibition (Confidence Interval) / Combination Indices at 90% HIV Inhibition (Confidence Interval): 95% CI in parentheses
Protocol: as §1, §2
Analysis of Drug Combination Effects. For determination of CI values, drugs were diluted in a fixed ratio and multiple ratios were analyzed. The drug serial dilutions spanned a range of concentrations near the EC50 value of each compound, so that equivalent antiviral activities could be compared. Concentration-response curves were estimated for each individual drug and every combination using the median-effect equation. The equation was fit using a nonlinear regression routine (Proc Nlin) in PC SAS version 8.01 (SAS Institute Inc., SAS Version 8.01, Cary, N.C.: SAS Institute Inc., 1990).
as §3
To assess antiviral effects of different drug combination treatments, combination indices (CIs) were calculated according to Chou and Rideout. The combination index was computed as CI=[D]1/[Dm]1+[D]2/[Dm]2
In this equation [Dm]1 and [Dm]2 are the concentrations of drugs that would individually produce a specific level of effect, while [D]1 and [D]2 are the concentrations of drugs in combination that would produce the same level of effect.
Theoretically, additivity is implied if the CI is equal to one, synergy if the CI is less than one, and antagonism if the CI is greater than one. […] At best, we can construct a range that contains the likely values for the CI, given the noise in the data. In this report, these ranges are reported in parentheses next to each point estimate of the CI. […] If the range fell entirely above 1.0, we would infer antagonistic behavior. If the range were to include 1.0, we would infer additivity.

[3] = combination with Compound 1, EC50 ratio 1:1 (Compound 1:comparator)
[4] = combination with Compound 1, EC50 ratio 1:2.5 (Compound 1:comparator)
[5] = combination with Compound 1, EC50 ratio 2.5:1 (Compound 1:comparator)

pEC50 (HIV-1 NL4-3 [1]) | Structure (SMILES) | Overall Result (HIV-1 NL4-3 [2]) | Combination Indices at 50% HIV Inhibition (Confidence Interval) (HIV-1 NL4-3 [2]; [3]) | Combination Indices at 75% HIV Inhibition (Confidence Interval) (HIV-1 NL4-3 [2]; [3]) | Combination Indices at 90% HIV Inhibition (Confidence Interval) (HIV-1 NL4-3 [2]; [3]) | Combination Indices at 50% HIV Inhibition (Confidence Interval) (HIV-1 NL4-3 [2]; [4]) | Combination Indices at 75% HIV Inhibition (Confidence Interval) (HIV-1 NL4-3 [2]; [4]) | Combination Indices at 90% HIV Inhibition (Confidence Interval) (HIV-1 NL4-3 [2]; [4]) | Combination Indices at 50% HIV Inhibition (Confidence Interval) (HIV-1 NL4-3 [2]; [5]) | Combination Indices at 75% HIV Inhibition (Confidence Interval) (HIV-1 NL4-3 [2]; [5]) | Combination Indices at 90% HIV Inhibition (Confidence Interval) (HIV-1 NL4-3 [2]; [5]) | Overall Result (HIV-1 NL4-3 [2]; listed as emtricitibine) | Overall Result (HIV-1 NL4-3 [2]; listed as efavirenz)
6.96 | Nc1nc(=O)n([C@@H]2CS[C@H](CO)O2)cc1F [Emtricitabine, emtricitabine] | Synergistic | 0.52 (0.44, 0.59) | 0.40 (0.32, 0.48) | 0.32 (0.22, 0.41) | 0.74 (0.63, 0.84) | 0.64 (0.52, 0.77) | 0.57 (0.39, 0.75) | 0.49 (0.42, 0.56) | 0.34 (0.28, 0.41) | 0.25 (0.17, 0.33) | synergistic | 
8.82 | O=C1Nc2ccc(Cl)cc2[C@@](C#CC2CC2)(C(F)(F)F)O1 [Efavirenz, efavirenz] | Synergistic | 0.57 (0.44, 0.70) | 0.56 (0.38, 0.74) | 0.56 (0.28, 0.84) | 0.49 (0.36, 0.62) | 0.54 (0.34, 0.75) | 0.61 (0.26, 0.97) | 0.60 (0.45, 0.74) | 0.51 (0.33, 0.68) | 0.43 (0.20, 0.67) |  | strong synergistic effects

Structure (SMILES) | pEC50 (HIV-1 NL4-3 [1]) | Overall Result (HIV-1 NL4-3 [2]) | Combination Indices at 50% HIV Inhibition (Confidence Interval) (HIV-1 NL4-3 [2]; [3]) | Combination Indices at 75% HIV Inhibition (Confidence Interval) (HIV-1 NL4-3 [2]; [3]) | Combination Indices at 90% HIV Inhibition (Confidence Interval) (HIV-1 NL4-3 [2]; [3]) | Combination Indices at 50% HIV Inhibition (Confidence Interval) (HIV-1 NL4-3 [2]; [4]) | Combination Indices at 75% HIV Inhibition (Confidence Interval) (HIV-1 NL4-3 [2]; [4]) | Combination Indices at 90% HIV Inhibition (Confidence Interval) (HIV-1 NL4-3 [2]; [4]) | Combination Indices at 50% HIV Inhibition (Confidence Interval) (HIV-1 NL4-3 [2]; [5]) | Combination Indices at 75% HIV Inhibition (Confidence Interval) (HIV-1 NL4-3 [2]; [5]) | Combination Indices at 90% HIV Inhibition (Confidence Interval) (HIV-1 NL4-3 [2]; [5]) | Overall Result (HIV-1 NL4-3 [2]; listed as emtricitibine) | Overall Result (HIV-1 NL4-3 [2]; listed as efavirenz)
CON(Cc1ccc(F)cc1)C(=O)/C=C(\O)C(=O)O [Compound 1, (Z)-3-[(4-Fluoro-benzyl)-methoxy-carbamoyl]-2-hydroxy-acrylic acid] | 6.81 | synergistic or additive-synergistic |  |  |  |  |  |  |  |  |  |  | 
